Reference: patent US8592406B2, “Transnasal anticonvulsive pharmaceutical composition comprising poorly soluble anticonvulsant” (SK Biopharmaceuticals Co., Ltd., priority 2008, dated 2013)

Assays:
[1] = humans, transnasal, Cremophor EL vehicle; cited from earlier work
[2] = Pharmacokinetic test of lorazepam-containing nasal formulation in rabbit (bioavailability test); details: plasma, other: transnasal, 1.6 mg/kg
Method: Right before this experiment, rabbits (n=3) were weighed, and a mixed solution including 25 mg of ketamine and 4 mg of xylazine was intramuscularly injected to the rabbits per kilogram (Kg) in order to anesthetize the rabbits, and a catheter was fastened to each rabbit to collect blood from rabbits' otic artery. An intravenous injection was performed by administering the mixed solution to the rabbits via the rabbits' otic artery at a dose of 1 mg/kg for approximately 20 seconds. […] Then, each formulation was sprayed to the rabbits using a Pfeiffer nasal spry system.
Blood samples (1 Ml) were collected from the rabbits' otic artery at 0, 2, 5, 10, 20, 30, 45, 60 and 120 minutes after the intravenous injection and transnasal administration of each formulation. Each of the blood samples was centrifuged to separate rabbit plasma, which was stored at −20° C. until is will be used for analysis. In order to analyze the plasma samples, each of the plasma samples (0.5 Ml) was exactly transferred to a 1.5 Ml polypropylene centrifuge tube. […]
In this case, the lorazepam was set to a concentration of 9%, and was administered at a dose of 1.6 mg/kg. […] Each plasma sample pre-treated with acetonitrile was quantified under the following LC/MS/MS conditions. […] The ionization was analyzed in a positive mode using an electrospray ionization (ESI) method, and the ion spray temperature was set to 500° C.

Compound	Peak concentration versus intravenous administration [1]	bioavailability [2]
CN1C(=O)CN=C(c2ccccc2)c2cc(Cl)ccc21 [diazepam]	lower than that observed after the intravenous administration	
O=C1Nc2ccc(Cl)cc2C(c2ccccc2Cl)=NC1O (centres unmarked) [lorazepam]		35%
